Experimental findings from ChEMBL document CHEMBL1121501, “Synthesis and preliminary binding studies of 4,4-ditritio-(-)-nicotine of high specific activity” (J Med Chem, 1980) are described below.

Experiment [1] is filed under the species Rattus norvegicus.
Description: Compound was evaluated for the binding affinity at crude mitochondrial fraction of rat whole brain at 13 fmol of binding sites/mg of protein
The species named for experiment [2] is Rattus norvegicus. This is another data set of the same source.
Description: Compound was evaluated for the binding affinity at crude mitochondrial fraction of rat whole brain at 7 nmol/mg of protein.

With `CN1CCC[C@H]1c1cccnc1`, the Ka was 4.7e+06 M⁻¹ in the experiment listed under Rattus norvegicus [1] and 4400 M⁻¹ in the experiment filed under Rattus norvegicus [2].
